How the values were obtained:
human GPBAR1 = biological target: T1, human GPBAR1 (Homo sapiens, UniProt Q8TDU6); experiment: GPBAR1 mediated transactivation, CRE-luciferase reporter in transfected HEK-293T cells; type: cell-based; conditions: for EC50: HEK-293T CRE-luciferase transactivation; for GPBAR1 (% of activity in comparison to 10 μM TLCA): compound at 10 microM, HEK-293T, TLCA = 100%, triplicate; for GPBAR1/FXR selectivity: ratio between % of activity toward GPBAR1 and % of activity toward FXR
T1 construct: expressed in transfected cells; host or cells: HEK-293T
T1 sequence (Q8TDU6 1-330): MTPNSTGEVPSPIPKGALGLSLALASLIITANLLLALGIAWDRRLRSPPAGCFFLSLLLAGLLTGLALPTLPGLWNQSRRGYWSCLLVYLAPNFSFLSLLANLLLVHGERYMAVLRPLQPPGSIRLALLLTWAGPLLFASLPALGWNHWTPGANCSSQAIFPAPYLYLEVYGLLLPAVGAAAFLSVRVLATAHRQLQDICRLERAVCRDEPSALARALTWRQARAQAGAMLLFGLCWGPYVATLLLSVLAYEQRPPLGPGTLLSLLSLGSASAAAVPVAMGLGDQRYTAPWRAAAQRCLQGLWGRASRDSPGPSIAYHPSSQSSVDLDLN
Experimental: (§1) Selected compounds were tested in vitro on FXR and TGR5/GPBAR1 receptors (Table 1) using a whole cell model transfected with a reporter genes. The activity was evaluated in comparison with chenodeoxycholic acid (CDCA) and TLCA.
(§2) CDCA is a primary bile acid that functions as an endogenous ligand for FXR, while TLCA is a physiological ligand for TGR5/GPBAR1. In this assay, HepG2 cells (a liver-derived cell line) were cultured at 37° C. in minimum essential medium with Earl's salts containing 10% fetal bovine serum (FBS), 1% L-glutamine, and 1% penicillin/streptomycin. HEK-293T cells were cultured at 37° C. in D-MEM containing 10% fetal bovine serum (FBS), 1% L-glutamine, and 1% penicillin/streptomycin. The transfection experiments were performed using Fugene HD according to manufactured specifications. Cells were plated in a 24-well plate at 5×10^4 cells/well. For FXR mediated transactivation, HepG2 cells were transfected with 100 ng of pSG5-FXR, 100 ng of pSG5-RXR, 100 ng of pGL4.70 a vector encoding the human Renilla gene and 250 ng of the reporter vector p(hsp27)-TK-LUC containing the FXR response element IR1 cloned from the promoter of heat shock protein 27 (hsp27).
For GPBAR1 mediated transactivation, HEK-293T cells were transfected with 200 ng of pGL4.29, a reporter vector containing a cAMP response element (CRE) that drives the transcription of the luciferase reporter gene luc2P, with 100 ng of pCMVSPORT6-human GPBAR1, and with 100 ng of pGL4.70 a vector encoding the human Renilla gene. In control experiments HEK-293T cells were transfected only with vectors pGL4.29 and pGL4.70 to exclude any possibility that compounds could activate the CRE in a GPBAR1 independent manner. At 24 h post-transfection, cells were stimulated for 18 h with 10 μM TLCA as a control agent or putative GPBAR1 agonists as the same concentration. After treatments, cells were lysed in 100 μL of lysis buffer (25 mM Tris-phosphate, pH 7.8; 2 mM DTT; 10% glycerol; 1% Triton X-100), and 20 μL of cellular lysate was assayed for luciferase activity using the luciferase assay system. Luminescence was measured using Glomax 20/20 luminometer. Luciferase activities were normalized against Renilla activities. Antagonism against FXR of GPBAR1/TGR5 was measured as percent of activity in transactivation assay suing activity of TLCA as example of agonism.
(§3) The data on the activity of certain compounds of the invention on TGR5/GPBAR1 are described in the following table 1. In this table, activities for compounds of the invention on GPBAR1 was compared to those of the reference compound TLCA. For % of activity, each compound was tested at the concentration of 10 microM and transactivation activity of TLCA on CRE (i.e. TGR5/GPBAR1) was considered equal to 100%. For selectivity toward FXR, activity was assessed in HepG2 cells transfected with an FXR responsive element (IR1) cloned upstream to the luciferase gene. For calculation of efficacy data, maximal transactivation of IR1 caused by each compound (10 μM) was compared to maximal transactivation caused by CDCA (10 μM). GPBAR1/FXR selectivity calculated as ratio between % of activity toward GPBAR1 and % of activity toward FXR. Each experiment was conducted in triplicate.

FXR = biological target: T2, FXR (Homo sapiens, UniProt Q96RI1); experiment: FXR mediated transactivation, IR1 (hsp27)-luciferase reporter in transfected HepG2 cells; type: cell-based; conditions: compound at 10 μM, HepG2, vs maximal transactivation by CDCA 10 μM, triplicate
T2 construct: expressed in transfected cells; host or cells: HepG2
T2 sequence (Q96RI1 1-486): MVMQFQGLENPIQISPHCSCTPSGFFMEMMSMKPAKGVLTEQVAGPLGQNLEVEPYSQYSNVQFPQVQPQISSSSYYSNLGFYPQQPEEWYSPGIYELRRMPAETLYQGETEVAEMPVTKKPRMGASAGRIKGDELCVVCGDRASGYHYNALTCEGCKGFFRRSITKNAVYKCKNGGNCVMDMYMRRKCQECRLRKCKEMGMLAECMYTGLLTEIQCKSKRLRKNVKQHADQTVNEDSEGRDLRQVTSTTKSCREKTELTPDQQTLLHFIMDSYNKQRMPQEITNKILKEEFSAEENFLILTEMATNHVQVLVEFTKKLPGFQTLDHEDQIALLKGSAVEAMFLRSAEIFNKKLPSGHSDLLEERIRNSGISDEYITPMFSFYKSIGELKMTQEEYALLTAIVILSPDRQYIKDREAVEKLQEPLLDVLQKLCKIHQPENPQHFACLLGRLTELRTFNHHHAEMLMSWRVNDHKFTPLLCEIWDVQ
T2 sequence (P19793 1-462 partner): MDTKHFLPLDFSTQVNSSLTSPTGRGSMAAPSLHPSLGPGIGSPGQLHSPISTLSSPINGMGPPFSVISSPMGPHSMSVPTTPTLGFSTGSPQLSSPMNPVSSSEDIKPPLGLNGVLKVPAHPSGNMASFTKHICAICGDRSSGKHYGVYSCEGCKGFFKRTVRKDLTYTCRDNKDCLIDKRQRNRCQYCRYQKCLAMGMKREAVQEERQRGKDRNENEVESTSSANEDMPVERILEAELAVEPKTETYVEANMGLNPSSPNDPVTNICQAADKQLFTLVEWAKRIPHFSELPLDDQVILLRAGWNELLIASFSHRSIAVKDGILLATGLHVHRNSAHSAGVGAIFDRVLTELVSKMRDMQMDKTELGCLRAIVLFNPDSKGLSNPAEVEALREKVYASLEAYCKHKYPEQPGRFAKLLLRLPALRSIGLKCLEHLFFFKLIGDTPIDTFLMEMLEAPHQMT
Experimental: as §1, §2, §3

## C[C@H](CC#N)[C@H]1CC[C@H]2[C@@H]3C[C@@](C)(O)[C@@H]4C[C@H](O)CC[C@]4(C)[C@H]3CC[C@]12C [PBT109A, 3α, 6β-dihydroxy-6α-methyl-24-nor-5β-cholan-23-nitrile]
Human GPBAR1
  EC50: 570 nM
  GPBAR1 (% of activity in comparison to 10 μM TLCA): 83.4 ± 2.4%
  GPBAR1/FXR selectivity: 15.1
FXR
  FXR (% of activity in comparison to 10 μM CDCA): 5.5 ± 0.7%

## C[C@H](CC#N)[C@H]1CC[C@H]2[C@@H]3C[C@](C)(O)[C@@H]4C[C@H](O)CC[C@]4(C)[C@H]3CC[C@]12C [PBT109B, 3α,6α-dihydroxy-6β-methyl-24-nor-5β-cholan-23-nitrile]
Human GPBAR1
  EC50: 6900 nM
  GPBAR1 (% of activity in comparison to 10 μM TLCA): 95.4 ± 0.24%
  GPBAR1/FXR selectivity: 14.9
FXR
  FXR (% of activity in comparison to 10 μM CDCA): 6.4 ± 0.23%

## CC[C@@]1(O)C[C@H]2[C@@H]3CC[C@H]([C@H](C)CC#N)[C@@]3(C)CC[C@@H]2[C@@]2(C)CC[C@@H](O)C[C@@H]12 [PBT110A, 3α,6β-dihydroxy-6α-ethyl-24-nor-5β-cholan-23-nitrile]
Human GPBAR1
  EC50: 660 nM
  GPBAR1 (% of activity in comparison to 10 μM TLCA): 65.9 ± 1.69%
  GPBAR1/FXR selectivity: 9.9
FXR
  FXR (% of activity in comparison to 10 μM CDCA): 6.6 ± 0.065%

## CCC[C@]1(O)C[C@H]2[C@@H]3CC[C@H]([C@H](C)CC#N)[C@@]3(C)CC[C@@H]2[C@@]2(C)CC[C@@H](O)C[C@@H]12 [PBT111, 3α,6α-dihydroxy-6β-propyl-24-nor-5β-cholan-23-nitrile]
Human GPBAR1
  EC50: 1200 nM
  GPBAR1 (% of activity in comparison to 10 μM TLCA): 67.1 ± 2.1%
  GPBAR1/FXR selectivity: 21.6
FXR
  FXR (% of activity in comparison to 10 μM CDCA): 3.1 ± 0.29%

## CC(C)[C@]1(O)C[C@@H]2[C@H](CC[C@]3(C)[C@@H]([C@H](C)CC#N)CC[C@@H]23)[C@@]2(C)CC[C@@H](O)C[C@H]21 [PBT112, 3α, 6α-dihydroxy-6β-isopropyl-24-nor-5β-cholane-23-nitrile]
Human GPBAR1
  EC50: 2780 nM
  GPBAR1 (% of activity in comparison to 10 μM TLCA): 22.2 ± 0.13%
  GPBAR1/FXR selectivity: 5.16
FXR
  FXR (% of activity in comparison to 10 μM CDCA): 4.3 ± 0.31%

## C=C[C@]1(O)C[C@@H]2[C@H](CC[C@]3(C)[C@@H]([C@H](C)CC#N)CC[C@@H]23)[C@@]2(C)CC[C@@H](O)C[C@H]21 [PBT113, 3α, 6α-dihydroxy-6β-vinyl-24-nor-5β-cholane-23-nitrile]
Human GPBAR1
  EC50: 2260 nM
  GPBAR1 (% of activity in comparison to 10 μM TLCA): 62.5 ± 2.18%
  GPBAR1/FXR selectivity: 28.4
FXR
  FXR (% of activity in comparison to 10 μM CDCA): 2.2 ± 0.5%

## C=CCCC[C@]1(O)C[C@H]2[C@@H]3CC[C@H]([C@H](C)CC#N)[C@@]3(C)CC[C@@H]2[C@@]2(C)CC[C@@H](O)C[C@@H]12 [PBT114, 3α, 6α-dihydroxy-6β-(4-Pentenyl)-24-Nor-5β-Cholane-23-Nitrile]
Human GPBAR1
  EC50: 780 nM
  GPBAR1 (% of activity in comparison to 10 μM TLCA): 90.1 ± 1.35%
  GPBAR1/FXR selectivity: 56.31
FXR
  FXR (% of activity in comparison to 10 μM CDCA): 1.6 ± 0.05%

## C[C@H](CC#N)[C@H]1CC[C@H]2[C@@H]3C[C@@](O)(c4ccccc4)[C@@H]4C[C@H](O)CC[C@]4(C)[C@H]3CC[C@]12C [PBT115, 3α, 6α-dihydroxy-6β-phenyl-24-nor-5β-cholane-23-nitrile]
Human GPBAR1
  EC50: 4580 nM
  GPBAR1 (% of activity in comparison to 10 μM TLCA): 38.8 ± 1.79%
  GPBAR1/FXR selectivity: 2.13
FXR
  FXR (% of activity in comparison to 10 μM CDCA): 18.2 ± 1.08%

## C[C@H](CC#N)[C@H]1CC[C@H]2[C@@H]3C[C@](O)(Cc4ccccc4)[C@@H]4C[C@H](O)CC[C@]4(C)[C@H]3CC[C@]12C [PBT117, 3α,6β-dihydroxy-6α-benzyl-24-nor-5β-cholane-23-nitrile]
Human GPBAR1
  EC50: 9330 nM
  GPBAR1 (% of activity in comparison to 10 μM TLCA): 8.3 ± 0.015%
  GPBAR1/FXR selectivity: 1.88
FXR
  FXR (% of activity in comparison to 10 μM CDCA): 4.4 ± 0.49%

Reference: patent US20230066156A1, “6-SUBSTITUTED, 22-CYANO HYODEOXYCHOLANIC ANALOGUES AND USES THEREOF” (PRECISION BIO-THERAPEUTICS S.R.L., priority 2019, published 2023)
